Results as given in ChEMBL document CHEMBL3102705, “Design, synthesis and investigation on the structure-activity relationships of N-substituted 2-aminothiazole derivatives as antitubercular agents” (Eur J Med Chem, 2014).
Converted amounts (≈) assume the structure as drawn.

Legend:
Assay type in all cases: functional
[1] = test system: Mycobacterium tuberculosis; test: Antitubercular activity against rifampin-resistant Mycobacterium tuberculosis H37Rv ATCC 27294 assessed as growth inhibition after 16 to 24 hrs by microplate-Alamar Blue assay
[2] = test system: Mycobacterium tuberculosis; test: Antitubercular activity against capreomycin-resistant Mycobacterium tuberculosis H37Rv ATCC 27294 assessed as growth inhibition after 16 to 24 hrs by microplate-Alamar Blue assay
[3] = test system: Mycobacterium tuberculosis; test: Antitubercular activity against moxifloxacin-resistant Mycobacterium tuberculosis H37Rv ATCC 27294 assessed as growth inhibition after 16 to 24 hrs by microplate-Alamar Blue assay
[4] = test system: Mycobacterium tuberculosis; test: Antitubercular activity against isoniazid-resistant Mycobacterium tuberculosis H37Rv ATCC 27294 assessed as growth inhibition after 16 to 24 hrs by microplate-Alamar Blue assay

Structure (SMILES)	MIC [1] [µM]	MIC [2] [µM]	MIC [3] [µM]	MIC [4] [µM]
Fc1ccc(C(F)(F)F)cc1-c1csc(Nc2ccc(Cl)cc2)n1	10.9 (≈ 4.06 µg/mL)	17.4 (≈ 6.49 µg/mL)	15.5 (≈ 5.78 µg/mL)	10.4 (≈ 3.88 µg/mL)
Fc1ccc(C(F)(F)F)cc1-c1csc(Nc2cc(Cl)cc(Cl)c2)n1	9.7 (≈ 3.95 µg/mL)	12 (≈ 4.89 µg/mL)	12 (≈ 4.89 µg/mL)	7.1 (≈ 2.89 µg/mL)
NNC(=O)c1ccncc1 [ISONIAZID]	0.85 (≈ 0.117 µg/mL)	0.81 (≈ 0.111 µg/mL)	3.6 (≈ 0.494 µg/mL)	> 8
O=[N+]([O-])c1cn2c(n1)OC[C@@H](OCc1ccc(OC(F)(F)F)cc1)C2 [PRETOMANID]	0.51 (≈ 0.183 µg/mL)	1.26 (≈ 0.453 µg/mL)	0.88 (≈ 0.316 µg/mL)	0.43 (≈ 0.154 µg/mL)
CO[C@H]1/C=C/O[C@@]2(C)Oc3c(C)c(O)c4c(O)c(c(/C=N/N5CCN(C)CC5)c(O)c4c3C2=O)NC(=O)/C(C)=C\C=C\[C@H](C)[C@H](O)[C@@H](C)[C@@H](O)[C@@H](C)[C@H](OC(C)=O)[C@@H]1C [RIFAMPIN]	> 4	0.05 (≈ 0.0411 µg/mL)	0.14 (≈ 0.115 µg/mL)	0.06 (≈ 0.0494 µg/mL)
